In article PMC9855386, “Obtaining a Monoclonal Antibody against a Novel Prometryn-Like Hapten and Characterization of Its Selectivity for Triazine Herbicides” (Biosensors, 2022):

Tests used:
mouse antiserum = assay: ic-ELISA serum titer and inhibition rate of mice for the fusion experiment (Table S2); format: binding; settings: prometryn 1000 ng/mL
Description: The Institute of Quality Standards and Testing Technology for Agro-Products’ Experimental Animal Welfare and Ethical Committee (IQSTAP-2021-05) approved the use of animals in experiments. The buffer solution (0.01 M PBS, pH = 7.4) was used to dilute the immunogen (2 mg/mL) to 1 mg/mL. After that, Freund’s adjuvant was added to an identical volume of 0.1 mL in a sterile glass vial. The mixture was placed on a magnetic stirrer and stirred and mixed rapidly in an ice bath to fully emulsify. Six 7-week-old female BALB/c mice were selected for immunization. At the beginning of the third immunization, 3–5 days after each immunization, blood was taken from the orbit, incubated at 37 °C for 0.5 h and 4 °C for 2 h, and centrifuged at 1000 r/min for 10 min. Serum was collected, and the serum titer was determined. The immune strategy of mice was the same as that previously reported. Freund’s […] vaccination, and for the subsequent booster vaccination, Freund’s incomplete adjuvant was utilized. Freund’s adjuvant and immunogen during immunization should be 1:1 and thoroughly mixed until dripping into the water to prevent diffusion. The interval of booster immunization was 2 weeks, and the immune dose was 0.1 mg. Three days before fusion, the mice with the best performance were immunized with a dose of 0.05 mg. The mice were intraperitoneally injected without adjuvant.
(§1) The ic-ELISA method was used to screen the best-performing fusion mouse sera. They were used to establish the standard curve of antibodies by detecting the supernatant of positive cells. The buffer required for ic-ELISA was the same as previously reported. The specific steps of the operation are as follows: (1) The coated antigen was added to the microplate by diluting it with the required coating solutions (CBS, pH 9.6, 0.05 mol/L). Each well contained 100 µL, which was incubated at 37 °C for three h before being washed three times with washing buffer (PBST, PBS containing 0.1% Tween-20). (2) With sample dilution buffer (PBSTG, PBST containing 0.1% gelatin), the standard prometryn sample and the antiserum/antibody from mice were diluted to the required concentration. The microplate was incubated for 30 min at 37 °C with 50 µL of diluted antiserum or antibody and standard samples of various concentrations. PBST was used three times to wash the dishes. (3) Then, 100 µL of PBSTG-diluent IgG HRP (labeled goat anti-mouse IgG with HRP) was added to each well. After 30 min at 37 °C, the plate was cleaned three times with PBST. (4) Each well was incubated for 15 min in the dark at 25 °C with 100 µL of TMB color developing solution. To stop the reaction, 50 µL of the hydrochloric acid solution was added to each well. The absorbance at OD450 nm was measured with a TECAN Infinite M200 PRO microplate reader from Männedorf, Switzerland.
Ic-ELISA was used to measure the inhibition rate and serum titer of six immunized mice. Three days before cell fusion, Balb/c mice with the highest performance were selected and immunized. SP2/0 myeloma cells and mouse spleen cells were combined for fusion. After fusion, the supernatant of hybridoma cells was determined by indirect competitive enzyme-linked immunosorbent assay, the positive wells were screened, and the hybridoma cells were cloned to obtain hybridoma cell lines that can stably secrete monoclonal antibodies against prometryn. After the positive cell lines were expanded and cultured, mice treated with paraffin 7 days earlier were injected intraperitoneally. Ascites were collected after abdominal swelling and centrifuged at 4 °C at 1000 rpm, and the potency and inhibition rate of ascites were determined and frozen at −20 °C for purification. The 7D4 mAb against prometryn was obtained by purifying the […] with the octanoic acid-saturated ammonium sulfate method. […]

[1] = system: 7D4 mAb (mouse monoclonal anti-prometryn antibody); assay: ic-ELISA cross-reactivity of the 7D4 mAb with triazines; format: binding; settings: for Cross-Reactivity: relative to prometryn = 100%
Description: as §1
The ic-ELISA method was used to determine the ideal antibody and antigen mix. The coating antigen and antibody concentration used in the experiment was 1 mg/mL. The dilution multiples of the coating were 1 × 10^3, 2 × 10^3, 4 × 10^3, and 8 × 10^3. The prometryn standard was 1000 ng/mL. The best concentration combination of antigen and antibody was selected to establish the standard curve of the antibody. Prometryn standards were diluted to 1000, 500, 250, 125, 62.5, 31.25, 15.625, 7.8125, 3.90625, and 0 ng/mL, with PBSTG for subsequent ic-ELISA experiments. The standard curve was determined by ic-ELISA. […] Each measured OD value in the curve is the average of three independent repeats. The 7D4 mAb’s inhibition rate was well linearly correlated with the prometryn concentration. […] The 7D4 mAb type was identified as IgG1 using a mouse antibody isotyping kit from Sigma®, St. Louis, MO, USA.
Eleven triazine herbicides were selected to determine their cross-reactivity with 7D4 mAb. […] The cross-reaction rate with the other seven triazines was less than 1%. The hybridoma cell line 7D4 screened in this study can specifically recognize prometryn. […] The cross-reaction rate may vary depending on the immunoassay format and the competitive hapten preparation used.

Question: Which “IR (inhibition rate)” value (mouse antiserum; dilution of immunogen 1×103, serum dilution 1.28×105) does the source give for `CSc1nc(NC(C)C)nc(NC(C)C)n1` [Prometryn, 2-methylthio-4,6-di(isopropylamino)-1,3,5-triazobenzene] here?
Answer: The value was -7.66%.

Question: What about the “IR (inhibition rate)” value (mouse antiserum; dilution of immunogen 1×103, serum dilution 1.6×104) of the same compound?
Answer: The value was 65.86%.

Question: What about the “IR (inhibition rate)” value (mouse antiserum; dilution of immunogen 1×103, serum dilution 2×103) of the same compound?
Answer: The value was 85.70%.

Question: What about the “IR (inhibition rate)” value (mouse antiserum; dilution of immunogen 1×103, serum dilution 2.56×105) of the same compound?
Answer: Its value is 75.15%.

Question: And the “IR (inhibition rate)” value (mouse antiserum; dilution of immunogen 1×103, serum dilution 3.2×104)?
Answer: The value was 46.44%.

Question: And the “IR (inhibition rate)” value (mouse antiserum; dilution of immunogen 1×103, serum dilution 4×103)?
Answer: The value was 88.04%.

Question: What about the “IR (inhibition rate)” value (mouse antiserum; dilution of immunogen 1×103, serum dilution 6.4×104) of the same compound?
Answer: The value was 35.52%.

Question: And the “IR (inhibition rate)” value (mouse antiserum; dilution of immunogen 1×103, serum dilution 8×103)?
Answer: Its value is 81.46%.

Question: What about the “IR (inhibition rate)” value (mouse antiserum; dilution of immunogen 1.6×104, serum dilution 1.28×105) of the same compound?
Answer: Its value is -52.80%.

Question: What about the “IR (inhibition rate)” value (mouse antiserum; dilution of immunogen 1.6×104, serum dilution 1.6×104) of the same compound?
Answer: The value was 58.64%.

Question: And the “IR (inhibition rate)” value (mouse antiserum; dilution of immunogen 1.6×104, serum dilution 2×103)?
Answer: Its value is 85.05%.

Question: What about the “IR (inhibition rate)” value (mouse antiserum; dilution of immunogen 1.6×104, serum dilution 2.56×105) of the same compound?
Answer: Its value is 71.56%.

Question: And the “IR (inhibition rate)” value (mouse antiserum; dilution of immunogen 1.6×104, serum dilution 3.2×104)?
Answer: Its value is 28.55%.

Question: And the “IR (inhibition rate)” value (mouse antiserum; dilution of immunogen 1.6×104, serum dilution 4×103)?
Answer: Its value is 82.62%.

Question: And the “IR (inhibition rate)” value (mouse antiserum; dilution of immunogen 1.6×104, serum dilution 6.4×104)?
Answer: The value was 11.18%.

Question: And the “IR (inhibition rate)” value (mouse antiserum; dilution of immunogen 1.6×104, serum dilution 8×103)?
Answer: Its value is 81.51%.

Question: What about the “IR (inhibition rate)” value (mouse antiserum; dilution of immunogen 2×103, serum dilution 1.28×105) of the same compound?
Answer: Its value is 14.21%.

Question: What about the “IR (inhibition rate)” value (mouse antiserum; dilution of immunogen 2×103, serum dilution 1.6×104) of the same compound?
Answer: Its value is 61.99%.

Question: What about the “IR (inhibition rate)” value (mouse antiserum; dilution of immunogen 2×103, serum dilution 2×103) of the same compound?
Answer: Its value is 85.14%.

Question: What about the “IR (inhibition rate)” value (mouse antiserum; dilution of immunogen 2×103, serum dilution 2.56×105) of the same compound?
Answer: Its value is 74.90%.

Question: And the “IR (inhibition rate)” value (mouse antiserum; dilution of immunogen 2×103, serum dilution 3.2×104)?
Answer: Its value is 51.64%.

Question: What about the “IR (inhibition rate)” value (mouse antiserum; dilution of immunogen 2×103, serum dilution 4×103) of the same compound?
Answer: The value was 86.95%.

Question: What about the “IR (inhibition rate)” value (mouse antiserum; dilution of immunogen 2×103, serum dilution 6.4×104) of the same compound?
Answer: Its value is 10.11%.

Question: And the “IR (inhibition rate)” value (mouse antiserum; dilution of immunogen 2×103, serum dilution 8×103)?
Answer: The value was 79.58%.

Question: And the “IR (inhibition rate)” value (mouse antiserum; dilution of immunogen 3.2×104, serum dilution 1.28×105)?
Answer: Its value is 17.80%.

Question: And the “IR (inhibition rate)” value (mouse antiserum; dilution of immunogen 3.2×104, serum dilution 1.6×104)?
Answer: The value was 74.44%.

Question: And the “IR (inhibition rate)” value (mouse antiserum; dilution of immunogen 3.2×104, serum dilution 2×103)?
Answer: Its value is 84.75%.

Question: What about the “IR (inhibition rate)” value (mouse antiserum; dilution of immunogen 3.2×104, serum dilution 2.56×105) of the same compound?
Answer: The value was 72.21%.

Question: What about the “IR (inhibition rate)” value (mouse antiserum; dilution of immunogen 3.2×104, serum dilution 3.2×104) of the same compound?
Answer: Its value is 51.77%.

Question: And the “IR (inhibition rate)” value (mouse antiserum; dilution of immunogen 3.2×104, serum dilution 4×103)?
Answer: Its value is 68.48%.

Question: And the “IR (inhibition rate)” value (mouse antiserum; dilution of immunogen 3.2×104, serum dilution 6.4×104)?
Answer: The value was 28.68%.

Question: What about the “IR (inhibition rate)” value (mouse antiserum; dilution of immunogen 3.2×104, serum dilution 8×103) of the same compound?
Answer: Its value is 80.75%.

Question: And the “IR (inhibition rate)” value (mouse antiserum; dilution of immunogen 4×103, serum dilution 1.28×105)?
Answer: Its value is 7.62%.

Question: And the “IR (inhibition rate)” value (mouse antiserum; dilution of immunogen 4×103, serum dilution 1.6×104)?
Answer: Its value is 63.91%.

Question: And the “IR (inhibition rate)” value (mouse antiserum; dilution of immunogen 4×103, serum dilution 2×103)?
Answer: The value was 86.78%.

Question: What about the “IR (inhibition rate)” value (mouse antiserum; dilution of immunogen 4×103, serum dilution 2.56×105) of the same compound?
Answer: Its value is 78.43%.

Question: What about the “IR (inhibition rate)” value (mouse antiserum; dilution of immunogen 4×103, serum dilution 3.2×104) of the same compound?
Answer: Its value is 47.70%.

Question: What about the “IR (inhibition rate)” value (mouse antiserum; dilution of immunogen 4×103, serum dilution 4×103) of the same compound?
Answer: Its value is 87.39%.

Question: And the “IR (inhibition rate)” value (mouse antiserum; dilution of immunogen 4×103, serum dilution 6.4×104)?
Answer: Its value is 24.90%.

Question: And the “IR (inhibition rate)” value (mouse antiserum; dilution of immunogen 4×103, serum dilution 8×103)?
Answer: Its value is 81.74%.

Question: And the “IR (inhibition rate)” value (mouse antiserum; dilution of immunogen 8×103, serum dilution 1.28×105)?
Answer: The value was 7.17%.

Question: What about the “IR (inhibition rate)” value (mouse antiserum; dilution of immunogen 8×103, serum dilution 1.6×104) of the same compound?
Answer: Its value is 58.20%.

Question: What about the “IR (inhibition rate)” value (mouse antiserum; dilution of immunogen 8×103, serum dilution 2×103) of the same compound?
Answer: Its value is 87.26%.

Question: What about the “IR (inhibition rate)” value (mouse antiserum; dilution of immunogen 8×103, serum dilution 2.56×105) of the same compound?
Answer: The value was 59.68%.

Question: And the “IR (inhibition rate)” value (mouse antiserum; dilution of immunogen 8×103, serum dilution 3.2×104)?
Answer: The value was 15.68%.

Question: What about the “IR (inhibition rate)” value (mouse antiserum; dilution of immunogen 8×103, serum dilution 4×103) of the same compound?
Answer: Its value is 84.15%.

Question: And the “IR (inhibition rate)” value (mouse antiserum; dilution of immunogen 8×103, serum dilution 6.4×104)?
Answer: The value was 7.82%.

Question: What about the “IR (inhibition rate)” value (mouse antiserum; dilution of immunogen 8×103, serum dilution 8×103) of the same compound?
Answer: Its value is 76.22%.

Question: And the IC50 ([1]; ic-ELISA, analyte 1000-15.625 and 0 ng/mL)?
Answer: The IC50 was 3.901 ng/mL.

Question: What about the Cross-Reactivity [1] of the same compound?
Answer: The Cross-Reactivity was 100%.

Question: And the Cross-Reactivity ([1]; listed as prometryn)?
Answer: Its Cross-Reactivity is 100%.
